Test in all cases: NCI tumour cell line growth inhibition, 48 h
Assay [1] has as its system HCT-15 colon.
Assay [2] relates to KM12 colon.
The subject of assay [3] is PC-3 prostate.
Assay [4] deals with SW-620 colon.
In assay [5] the test system is RPMI-8226 leukemia.
Assay [6] concerns NCI-H23 lung.
Assay [7] relates to OVCAR-3 ovarian.
In assay [8] the test system is SK-MEL-28 melanoma.

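96-well plates; 48 h exposure; 5 concentrations. Endpoints by linear interpolation between flanking doses. Not reached: highest tested concentration assigned. GI50 is the concentration that inhibits growth by half. TGI: total growth inhibition.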

With `CNC(=O)OC(COC)CN1CCN(c2ccccc2C)CC1` (stereo unspecified), the TGI in assay [1], in assay [2], in assay [3], in assay [4], in assay [5] and in assay [6] was > 10 µM each time. The TGI in assay [7] and in assay [8] was > 10 µM throughout.
As to `Cc1ccc2oc3c(c(Br)c(Br)n3C)c(=O)c2c1`, the TGI in assay [1] is > 100 µM; in assay [2], > 100 µM; in assay [3], > 100 µM; in assay [4] it was > 100 µM; in assay [5] it was > 100 µM; in assay [6] it was 46.3 µM. Further, the figures for the TGI in assay [7] and in assay [8] were 46.8 µM and > 100 µM, respectively.
As to `Nc1c2c(nc3ccccc13)-c1ccccc1NCCC2`, the TGI in assay [1] is > 100 µM; in assay [2], > 100 µM; in assay [3], > 100 µM; in assay [4], > 100 µM; in assay [5] it was 58.5 µM; in assay [6], > 100 µM. Moreover, the figures for the TGI in assay [7] and in assay [8] were > 100 µM and 51.1 µM, respectively.
In the case of `CCC(O)c1ccc(N=Cc2ccccc2O)cc1` (stereo unspecified), the TGI in assay [1], in assay [2], in assay [3], in assay [4], in assay [5] and in assay [6] was > 100 µM throughout. The TGI in assay [7] and in assay [8] was > 100 µM in each case.
Regarding `Cc1ccc(NC(=O)/C(=N/N(C)C)C(C2OC(=O)c3ccccc32)[N+](=O)[O-])cc1` (stereo unspecified), the TGI in assay [1], in assay [2], in assay [3], in assay [4], in assay [5] and in assay [6] was > 100 µM each time. The TGI in assay [7] and in assay [8] was > 100 µM each time.
Take `CC[P+]1(c2ccccc2)[C@@H](C)CC[C@@H]1C`: the TGI in assay [1], in assay [2], in assay [3], in assay [4], in assay [5] and in assay [6] was > 100 µM throughout. Further, the TGI in assay [7] and in assay [8] was > 100 µM throughout.
As to `NC(=Nc1cccc(Cl)c1)c1ccccc1N`, the TGI in assay [1], in assay [2], in assay [3], in assay [4], in assay [5] and in assay [6] was > 100 µM each time. The TGI in assay [7] and in assay [8] was > 100 µM each time.
As to `O=C(NCCNc1nccc(-c2c(-c3cccc(O)c3)nc3sccn23)n1)c1ccccc1`, the GI50 is 18.8 µM in assay [1]; 12.1 µM in assay [2]; 11.9 µM in assay [3]; 18 µM in assay [4]; 6.97 µM in assay [5]; 10 µM in assay [6]. The results for the GI50 in assay [7] and in assay [8] were 12.3 µM and 0.336 µM, respectively. The TGI came out at 62.2 µM in assay [1]; 28.5 µM in assay [2]; 65.7 µM in assay [3]; 79.5 µM in assay [4]; 25.3 µM in assay [5]; 30.7 µM in assay [6]. Further, the TGI was determined as 64.8 µM in assay [7] and 99.1 µM in assay [8].
With `O=C1CSC2=NC3=C(CSC/C3=C\c3ccccc3)C(c3ccccc3)N12` (stereo unspecified), the TGI in assay [1], in assay [2], in assay [3], in assay [4], in assay [5] and in assay [6] was > 100 µM each time. The TGI in assay [7] and in assay [8] was > 100 µM throughout.
Consider `CO[C@@H]1C[C@H](OC(N)=O)[C@@H]2C=C[C@@H]3/C=C(C)/C=C/[C@@H](C)[C@H](/C(C)=C/[C@@H](C)NC(C)=O)OC(=O)/C=C/C=C(C)\C=C\[C@]3(C)[C@@H]2C1`, for which the TGI in assay [1] is 0.717 µM; in assay [2], 0.163 µM; in assay [3], 1.58 µM; in assay [4], 1.24 µM; in assay [5], 0.353 µM; in assay [6] it was 2.84 µM. For the same molecule, the TGI in assay [7] is 0.251 µM; in assay [8], 0.458 µM.
For the molecule `Cc1cccc(C)c1Nc1nc(C)c(C(=O)CC(=O)C(=O)Nc2c(C(C)C)cccc2C(C)C)s1`, the TGI in assay [1], in assay [2], in assay [3], in assay [4], in assay [5] and in assay [6] was > 100 µM in each case. In addition, the TGI in assay [7] and in assay [8] was > 100 µM throughout.
For the molecule `CCOC(=O)c1cc(C2CCN(c3ccccc3)C2=O)c(C(=O)/C=C(/C)N)[nH]1` (stereo unspecified), the TGI in assay [1], in assay [2], in assay [3], in assay [4], in assay [5] and in assay [6] was > 100 µM throughout. The TGI in assay [7] and in assay [8] was > 100 µM in each case.
`S=C(N1CCN(c2cccc(Cl)c2)CC1)N1CCN(c2cccc(Cl)c2)CC1`: the TGI in assay [1] is > 100 µM; in assay [2] it was 61.7 µM; in assay [3], > 100 µM; in assay [4], > 100 µM; in assay [5] it was > 100 µM; in assay [6] it was > 100 µM. Besides, the TGI in assay [7] and in assay [8] was > 100 µM each time.
`CCN(CC)CCCNc1[nH]ncc2c(C)c3nc4ccc(OC)cc4c3cc12`: the TGI in assay [1] is 36.3 µM; in assay [2], 4.49 µM; in assay [3], 1.73 µM; in assay [4], 1.58 µM; in assay [5] it was 2.69 µM; in assay [6], 1.97 µM. Also, the TGI in assay [7] is 2.99 µM; in assay [8], 2.01 µM.
In the case of `C=CCN(c1cc(OC)c2[nH]c(C(=O)OCC)c(C)c2c1[N+](=O)[O-])S(C)(=O)=O`, the TGI was > 100 µM in assay [1]; 66.2 µM in assay [2]; 38.1 µM in assay [3]; > 100 µM in assay [4]; 32.8 µM in assay [5]; > 100 µM in assay [6]. Also, the figures for the TGI in assay [7] and in assay [8] were 80.2 µM and > 100 µM, respectively.
`NC(Cc1ncccn1)C(=O)O` (stereo unspecified): the TGI in assay [1], in assay [2], in assay [3], in assay [4], in assay [5] and in assay [6] was > 100 µM each time. In addition, the TGI in assay [7] and in assay [8] was > 100 µM throughout.
As to `O=S(=O)(/N=C(\NO)Nc1ccc(Cl)cc1)c1ccccc1`, the TGI was > 100 µM in assay [1]; > 100 µM in assay [2]; 37.3 µM in assay [3]; > 100 µM in assay [4]; 56.8 µM in assay [5]; > 100 µM in assay [6]. Moreover, the values for the TGI in assay [7] and in assay [8] were 8.89 µM and 33.9 µM, respectively.
As to `CCCN1C(=O)/C(=C\c2ccc(OC)c(OC)c2)SC1=Nc1ccccc1`, the TGI in assay [1], in assay [2], in assay [3], in assay [4], in assay [5] and in assay [6] was > 100 µM each time. Further, the TGI in assay [7] and in assay [8] was > 100 µM throughout.
On to `CCOC(=O)c1c(N2CCCC2)ncn(C)c1=S`, for which the TGI in assay [1], in assay [2], in assay [3], in assay [4], in assay [5] and in assay [6] was > 100 µM in each case. Also, the TGI in assay [7] and in assay [8] was > 100 µM throughout.
Turning to `CC[C@H](C)C1=C(O)[N@+]2([O-])Oc3ccc(-c4c(O)c(O)c(-c5ccc(O)cc5)c(OC(C)=O)c4OC(C)=O)cc3O[C@]2([C@@H](C)CC)C(=O)N1O`, the TGI in assay [1] is > 50 µM; in assay [2], > 50 µM; in assay [3], > 50 µM; in assay [4], > 50 µM; in assay [5], 29.9 µM; in assay [6], > 50 µM. Also, the TGI in assay [7] and in assay [8] was > 50 µM in each case.
Take `COP(=O)(OC)/C(=C/c1cn(C(c2ccccc2)(c2ccccc2)c2ccccc2)cn1)NC=O`: the TGI in assay [1] was 99.4 µM; in assay [2], > 100 µM; in assay [3], > 100 µM; in assay [4] it was 78.1 µM; in assay [5], > 100 µM; in assay [6] it was 41.2 µM. Besides, the TGI in assay [7] worked out at 30.2 µM; in assay [8], 93.6 µM.
As for `CCOC(=O)C(O)(C(=O)OCC)c1cc(C(C)(C)C)c(O)c(C(C)(C)C)c1`, the TGI in assay [1] is > 100 µM; in assay [2] it was > 100 µM; in assay [3], > 100 µM; in assay [4], > 100 µM; in assay [5], 91.3 µM; in assay [6], > 100 µM. Besides, the TGI in assay [7] and in assay [8] was > 100 µM in each case.
For the molecule `Cc1cccc2c(N)c3cccc(C(=O)NCC[N+]4(Cc5ccc([N+](=O)[O-])cc5)CCOCC4)c3nc12`, the TGI in assay [1], in assay [2], in assay [3], in assay [4], in assay [5] and in assay [6] was > 100 µM in each case. Moreover, the TGI in assay [7] and in assay [8] was > 100 µM throughout.
As for `CC1(C)OC[C@@H](O)[C@H](Br)CO1`, the TGI in assay [1], in assay [2], in assay [3], in assay [4], in assay [5] and in assay [6] was > 100 µM in each case. The TGI in assay [7] and in assay [8] was > 100 µM throughout.
With `CSc1c(CC(=O)Nc2ccc(Cl)cc2)n(Cc2ccccc2)c2ccccc12`, the TGI is > 100 µM in assay [1]; > 100 µM in assay [2]; 27.7 µM in assay [3]; > 100 µM in assay [4]; > 100 µM in assay [5]; > 100 µM in assay [6]. For the same molecule, the TGI in assay [7] and in assay [8] was > 100 µM throughout.
Take `O=C(Nc1sccc1S(=O)(=O)c1ccccc1)c1ccccc1`: the TGI in assay [1], in assay [2], in assay [3], in assay [4], in assay [5] and in assay [6] was > 100 µM each time. The TGI in assay [7] and in assay [8] was > 100 µM throughout.
With `CC(C)(C)C1=CC(=C2C=Cc3ccccc3O2)C=C(C(C)(C)C)C1=O`, the TGI in assay [1] amounted to 19.3 µM; in assay [2], 9.7 µM; in assay [3], 16.2 µM; in assay [4], 13.9 µM; in assay [5], 5.45 µM; in assay [6], 30.8 µM. Besides, the figures for the TGI in assay [7] and in assay [8] were 7.71 µM and 22.2 µM, respectively.
With `COc1nc2c(c(=O)n1C)N=C(c1ccc(Cl)cc1)CC(c1ccccc1)N2` (stereo unspecified), the TGI in assay [1] is 30.4 µM; in assay [2], 33.8 µM; in assay [3], > 100 µM; in assay [4], > 100 µM; in assay [5], 54 µM; in assay [6], 69.1 µM. Further, the TGI in assay [7] and in assay [8] was > 100 µM each time.
As for `COc1ccc2nc3n(c2c1)C(=O)c1ccccc1-3`, the TGI in assay [1], in assay [2], in assay [3], in assay [4], in assay [5] and in assay [6] was > 100 µM throughout. Further, the TGI in assay [7] and in assay [8] was > 100 µM throughout.
For the molecule `C(=Nc1ccc(-c2nc3ccccc3[nH]2)cc1)c1ccco1`, the TGI in assay [1], in assay [2], in assay [3], in assay [4], in assay [5] and in assay [6] was > 100 µM in each case. The TGI in assay [7] and in assay [8] was > 100 µM each time.
On to `COc1ccc2c3c1OC1C34CCN(C)C(C2)C4=CC(I)C1(OC)OC` (stereo unspecified), for which the TGI came out at 27.8 µM in assay [1]; 28.3 µM in assay [2]; 23.2 µM in assay [3]; 20.1 µM in assay [4]; 14.2 µM in assay [5]; 21.1 µM in assay [6]. For the same molecule, the TGI turned out to be 18.5 µM in assay [7] and 25.9 µM in assay [8].

Source of the values: PubChem BioAssay (NCI).
